# Assay results taken from publication PMC7809260 (Scientific Reports, 2021).
# Where a name gives a salt, the structure may show the parent alone. Read-outs that look alike come from different tables or passages of the source.
# How the values were obtained:
# U2OS-DAT cells [1] = experiment: GPCR antagonist experiment, dopamine-induced cell response in U2OS-DAT cells (xCELLigence); format: cell-based, human; details: 1 µM antagonist 1 h, then 10 µM dopamine
# Description: Impedance was measured overnight every 15 min.
# [2] = test system: non-transfected U2OS cells; experiment: GPCR antagonist experiment, dopamine-induced response in non-transfected U2OS cells (xCELLigence); format: cell-based, human; details: 1 µM antagonist 1 h, then 316 nM dopamine
# Description: Figure S1. Representative vehicle-corrected xCELLigence traces of GPCR antagonists in three cell lines. (a) Pretreatment of U2OS-DAT cells with 1 µM antagonist for 1 h. (b) […]
# vehicle, 1 µM SCH23390 or raclopride for 1 h. ( c) Pretreatment of JumpIn-DAT cells in the (1 picture or pasted object on this page, not shown here)
# JumpIn-DAT cells [3] = experiment: GPCR antagonist experiment, dopamine response in dox-treated JumpIn-DAT cells (xCELLigence); format: cell-based, human; details: 1 µM antagonist 1 h, then 31.6 µM dopamine
# JumpIn-DAT cells [4] = experiment: cells; details: Homo sapiens
# [5] = molecular target: human dopamine transporter (DAT) (Homo sapiens, UniProt Q01959); experiment: TRACT assay, DAT inhibition in JumpIn-DAT cells (+dox); details: dox-treated JumpIn-DAT cells, 10 µM inhibitor compared to vehicle-pretreated cells
# JumpIn-DAT cells [6] = experiment: Effect of pretreatment alone on impedance, dox-treated JumpIn-DAT cells (xCELLigence); format: cell-based, human; details: 10 µM, 1 h
# U2OS-DAT cells [7] = experiment: Effect of pretreatment alone on impedance, U2OS-DAT cells (xCELLigence); format: cell-based, human; details: 10 µM, 1 h incubation
# DAT [8] = details: cited from earlier work
# DAT [9] = details: cited from earlier work; remark: listed apart in the source
# DAT [10] = molecular target: T1, DAT (Homo sapiens, UniProt Q01959); experiment: [3H]WIN35,428 saturation binding assay
# T1 construct: host or cells: U2OS, transient PEI transfection of pcDNA3.1(+)-DAT; whole cells or membranes
# T1 sequence (Q01959 whole entry): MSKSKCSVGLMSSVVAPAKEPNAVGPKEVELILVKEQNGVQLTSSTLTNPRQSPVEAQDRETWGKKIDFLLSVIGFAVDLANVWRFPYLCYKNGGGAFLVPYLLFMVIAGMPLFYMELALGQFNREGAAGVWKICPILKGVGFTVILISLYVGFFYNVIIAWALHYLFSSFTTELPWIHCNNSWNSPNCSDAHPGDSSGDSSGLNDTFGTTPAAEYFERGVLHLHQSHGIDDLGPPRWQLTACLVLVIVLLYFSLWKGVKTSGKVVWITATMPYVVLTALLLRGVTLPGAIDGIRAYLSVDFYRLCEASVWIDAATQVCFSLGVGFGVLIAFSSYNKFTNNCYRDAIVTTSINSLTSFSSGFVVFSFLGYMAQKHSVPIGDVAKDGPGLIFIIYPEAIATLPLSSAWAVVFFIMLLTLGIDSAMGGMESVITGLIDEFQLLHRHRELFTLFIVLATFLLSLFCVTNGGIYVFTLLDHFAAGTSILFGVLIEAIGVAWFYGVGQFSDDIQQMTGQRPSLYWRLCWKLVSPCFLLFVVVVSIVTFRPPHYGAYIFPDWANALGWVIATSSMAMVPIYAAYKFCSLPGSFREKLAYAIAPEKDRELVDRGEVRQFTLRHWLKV
# human dopamine transporter (DAT), sequence (Q01959 whole entry): as above
compound,measurement,setting,value
"CN1CCc2cc(Cl)c(O)cc2[C@@H](c2ccccc2)C1 [SCH23390, SCH23390 hydrochloride]",effect on dopamine-induced cell response,U2OS-DAT cells [1],completely abolish
same,effect on dopamine-induced response,[2],eliminated the dopamine-induced response
same,effect on dopamine response,JumpIn-DAT cells [3],not affected
"NCCc1ccc(O)c(O)c1 [Dopamine, dopamine hydrochloride]",EC50,"JumpIn-DAT cells [4]; 0.5 h, read-out: pEC50 ± SEM (apparent potency of dopamine), JumpIn-DAT –dox (converted), fixed pseudo-Hill slope of 1, net AUC first 30 min",7.94 µM
same,EC50,"JumpIn-DAT cells [4]; read-out: EC50 in µM, JumpIn-DAT +dox pretreated 1 h with 10 µM GBR12909, fixed pseudo-Hill slope of 1",26 µM
same,EC50,"JumpIn-DAT cells [4]; read-out: EC50 in µM, JumpIn-DAT +dox pretreated 1 h with 10 µM cocaine, fixed pseudo-Hill slope of 1",13 µM
same,EC50,"JumpIn-DAT cells [4]; read-out: EC50 in µM, JumpIn-DAT –dox, fixed pseudo-Hill slope of 1",8 µM
same,EC50,"JumpIn-DAT cells [4]; read-out: pEC50 ± SEM (apparent potency of dopamine), JumpIn-DAT +dox (1 µg/ml), vehicle-pretreated (converted), fixed pseudo-Hill slope of 1",50.1 µM
same,EC50,"JumpIn-DAT cells [4]; read-out: pEC50 ± SEM (apparent potency of dopamine), JumpIn-DAT +dox pretreated 1 h with 10 µM GBR12909 (converted), fixed pseudo-Hill slope of 1",25.1 µM
same,EC50,"JumpIn-DAT cells [4]; read-out: pEC50 ± SEM (apparent potency of dopamine), JumpIn-DAT +dox pretreated 1 h with 10 µM cocaine (converted), fixed pseudo-Hill slope of 1",12.6 µM
same,EC50,"JumpIn-DAT cells [4]; read-out: pEC50 ± SEM (variable slope), JumpIn-DAT +dox (converted), variable slope model",31.6 µM
same,EC50,"JumpIn-DAT cells [4]; read-out: pEC50 ± SEM (variable slope), JumpIn-DAT +dox + 10 µM GBR12909 (converted), variable slope model",31.6 µM
same,EC50,"JumpIn-DAT cells [4]; read-out: pEC50 ± SEM (variable slope), JumpIn-DAT +dox + 10 µM cocaine (converted), variable slope model",20 µM
"COC(=O)[C@H]1[C@@H](OC(=O)c2ccccc2)C[C@@H]2CC[C@H]1N2C.Cl [Cocaine, Cocaine hydrochloride]",enhancement of the apparent potency of dopamine by DAT inhibitor,[5],threefold
same,effect of pretreatment on its own on impedance,JumpIn-DAT cells [6],did not substantially affect impedance over time
"Cl.Cl.Fc1ccc(C(OCCN2CCN(CCCc3ccccc3)CC2)c2ccc(F)cc2)cc1 [GBR12909, GBR12909 dihydrochloride]",enhancement of the apparent potency of dopamine by DAT inhibitor,[5],twofold
same,effect of pretreatment on its own on impedance,JumpIn-DAT cells [6],did not substantially affect impedance over time
same,effect of pretreatment itself on impedance,U2OS-DAT cells [7],did not substantially affect impedance
same,affinity for DAT,DAT [8],low nanomolar
same,"pIC50, MPP+-induced toxicity inhibition",DAT [9],7.0
"[3H]CN1[C@H]2CC[C@@H]1[C@@H](C(=O)OC)[C@@H](c1ccc(F)cc1)C2 [[^3H]WIN35,428, [^3H]-2β-carbomethoxy-3β-(4-fluorophenyl)-tropane]",Bmax (total amount of binding sites),DAT [10]; U2OS-DAT membranes,1.6 ± 0.2 pmol/mg protein
same,specific binding,DAT [10]; U2OS-mock membranes,No specific binding
CCN1CCC[C@H]1CNC(=O)c1c(O)c(Cl)cc(Cl)c1OC [raclopride],effect on dopamine-induced response,[2],not
"COC(=O)[C@@H]1[C@H]2C[C@H]3c4[nH]c5ccccc5c4CCN3C[C@@H]2CC[C@@H]1O [yohimbine, Yohimbine hydrochloride]",effect on dopamine response,JumpIn-DAT cells [3],significantly reduced
